Experimental data reported in patent US20260083865A1, “PROSTATE SPECIFIC MEMBRANE ANTIGEN (PSMA) LIGANDS AND USE THEREOF” (priority 2022, published 2026).
Read-outs that look alike come from different tables or passages of the source. Numbered stars: 1 amine (or outer) side, 2 acyl side, 3 side chain; on linkers, the order of the positions; unused ones are H or OH. Bridge positions count the residues as written; N and C are the ends. Square brackets hold non-standard residues; d marks the D form. Peptide text beside a SMILES is read from it. * marks the point of attachment. DOTA = O=C(O)CN1CCN(CC(=O)O)CCN(CC(=O)*)CCN(CC(=O)O)CC1; Phe(4-Cl) = N[C@@H](Cc1ccc(Cl)cc1)C(=O)O; Phe(3-F) = N[C@@H](Cc1cccc(F)c1)C(=O)O; Arg(Me) = CNC(=N)NCCC[C@H](N)C(=O)O; Ethylenediamine = C(CN[*:2])N[*:1]; X1 = O=C(CC1CCN([*:1])CC1)[*:2]; Lys(Me) = CNCCCC[C@H](N)C(=O)O; Tle = CC(C)(C)[C@H](N)C(=O)O; Nle = CCCC[C@H](N)C(=O)O; Deg = CCC(N)(CC)C(=O)O; Aib = CC(C)(N)C(=O)O

Columns and labels:
[1] = biological target: T1, PSMA-expressing C4-2 cells (Homo sapiens, UniProt Q04609); test: FACS binding assay (competition with 50 nM PSM-0183); conditions: read-out: pIC50 [C4-2] CAT (converted)
T1 construct: PSMA-expressing C4-2 cells (ATCC, Cat. No. CRL-3314) were cultured in RPMI-1640; host or cells: C4-2 cells
How it was run: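 C4-2 cells were incubated 1 h at 4 °C with 50 nM AF488-labelled peptide PSM-0183 plus increasing test compound concentrations, then washed twice in ice-cold buffer. Median fluorescence in the AF488 channel was read by flow cytometry. IC50/pIC50 was derived by 4PL fitting of MFI versus concentration.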

[2] = biological target: T2, Fc-fusion protein of human PSMA (hPSMA-Fc) (Homo sapiens, UniProt Q04609); test: Surface plasmon resonance assay (Biacore T200, single cycle kinetic); type: binding; conditions: read-out: pKD CAT (converted)
T2 construct: purchased Acro Biosystems PSA-H5264
How it was run: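 hPSMA-Fc was captured (~1000 RU) on an Fc-binding-peptide CM5 chip, and compounds were run in single cycle kinetic mode at 25° C in HBST with 0.1% DMSO. Double-blank-corrected sensorgrams were fitted to a 1:1 Langmuir model to give KD, reported as pKD.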

[3] = FACS binding, C4-2 cells, category
[4] = pIC50 category of FACS binding, C4-2 cells
[5] = pKD category for PSMA SPR activity assay, hPSMA-Fc, 25° C.
[6] = FACS binding, PSMA-expressing C4-2 cells, pIC50 category
[7] = PSMA SPR assay, hPSMA-Fc, 25° C., pKD category

T2 sequence (Q04609 44-750 limits assumed): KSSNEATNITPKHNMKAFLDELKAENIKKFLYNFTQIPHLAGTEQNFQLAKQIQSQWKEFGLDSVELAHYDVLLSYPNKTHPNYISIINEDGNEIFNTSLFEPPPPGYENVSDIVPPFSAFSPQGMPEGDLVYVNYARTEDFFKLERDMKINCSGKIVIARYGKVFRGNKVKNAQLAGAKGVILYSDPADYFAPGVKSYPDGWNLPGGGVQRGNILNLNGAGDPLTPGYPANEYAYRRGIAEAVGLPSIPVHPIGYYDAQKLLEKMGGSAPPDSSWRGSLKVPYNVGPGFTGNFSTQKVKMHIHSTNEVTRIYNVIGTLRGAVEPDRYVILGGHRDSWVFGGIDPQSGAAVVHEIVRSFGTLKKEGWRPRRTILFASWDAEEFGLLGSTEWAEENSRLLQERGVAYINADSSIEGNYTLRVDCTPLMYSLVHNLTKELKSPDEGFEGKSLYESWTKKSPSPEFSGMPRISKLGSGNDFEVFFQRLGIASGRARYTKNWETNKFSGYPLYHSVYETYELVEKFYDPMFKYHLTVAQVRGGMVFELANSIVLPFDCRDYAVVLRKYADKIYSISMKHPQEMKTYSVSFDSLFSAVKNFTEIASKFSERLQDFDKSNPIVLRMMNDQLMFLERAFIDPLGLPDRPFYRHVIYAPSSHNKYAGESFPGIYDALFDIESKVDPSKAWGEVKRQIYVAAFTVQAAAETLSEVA
T1 sequence (Q04609 whole entry): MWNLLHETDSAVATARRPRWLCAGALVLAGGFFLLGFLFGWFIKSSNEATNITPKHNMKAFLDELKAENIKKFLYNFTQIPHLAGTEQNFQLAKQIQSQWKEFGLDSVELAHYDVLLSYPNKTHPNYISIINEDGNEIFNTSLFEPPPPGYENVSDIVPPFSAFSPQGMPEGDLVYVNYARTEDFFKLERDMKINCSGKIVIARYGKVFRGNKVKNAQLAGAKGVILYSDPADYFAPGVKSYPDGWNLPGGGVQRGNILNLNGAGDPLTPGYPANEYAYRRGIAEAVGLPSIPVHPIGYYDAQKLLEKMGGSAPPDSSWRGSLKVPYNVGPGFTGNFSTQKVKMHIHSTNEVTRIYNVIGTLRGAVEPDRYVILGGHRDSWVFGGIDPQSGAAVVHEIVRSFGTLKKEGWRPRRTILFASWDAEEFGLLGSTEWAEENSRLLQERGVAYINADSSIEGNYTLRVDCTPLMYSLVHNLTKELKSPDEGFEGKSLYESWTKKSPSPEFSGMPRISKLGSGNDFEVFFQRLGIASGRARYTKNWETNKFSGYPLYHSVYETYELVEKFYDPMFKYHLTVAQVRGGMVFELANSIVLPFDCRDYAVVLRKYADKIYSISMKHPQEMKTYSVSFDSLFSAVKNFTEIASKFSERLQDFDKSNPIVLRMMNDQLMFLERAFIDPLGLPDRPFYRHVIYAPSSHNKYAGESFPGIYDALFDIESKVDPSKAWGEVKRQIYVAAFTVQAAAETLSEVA

CNCCCC[C@@H]1NC(=O)[C@@H](NC(=O)[C@H](Cc2ccccc2)NC(=O)C(C)(C)NC(=O)[C@@H](NC(=O)CC2CCN(C(=O)CN3CCN(CC(=O)O)CCN(CC(=O)O)CCN(CC(=O)O)CC3)CC2)[C@@H](C)O)CSSC[C@@H](C(=O)N[C@H](C(=O)NCCN)C(C)(C)C)NC(=O)[C@H](CC(N)=O)NC(=O)C(C)(C)NC(=O)[C@H](CCCNC(=N)NC)NC1=O [PSM-605] ({DOTA}-[X1]T[Aib]FC[Lys(Me)][Arg(Me)][Aib]NC[Tle]-Ethylenediamine; disulfide 5-10)
IC50 [1, 3]: < 200 nM | Kd ([2]; PSMA SPR assay, category): < 12.6 nM

CCCC[C@H](NC(=O)[C@@H]1CSSC[C@H](NC(=O)[C@H](Cc2ccccc2)NC(=O)[C@H](C)NC(=O)[C@@H](NC(C)=O)[C@@H](C)O)C(=O)N[C@@H](CCCCN)C(=O)N[C@@H](CCCNC(=N)N)C(=O)N2CCC[C@H]2C(=O)N[C@@H](CC(N)=O)C(=O)N1)C(=O)N[C@H](C(=O)N[C@@H](CC(=O)O)C(N)=O)[C@@H](C)O [PSM-0460, Ac-Thr-Ala-Phe-[Cys-Lys-Arg-Pro-Asn-Cys]-Nle-Thr-Asp-NH2] (Ac-TAFCKRPNC[Nle]TD-NH2; disulfide 4-9)
IC50 [1, 4]: < 200 nM | Kd [2, 5]: 12.6 to 126 nM

CC(=O)N[C@H](C(=O)NC(C)(C)C(=O)N[C@@H](Cc1ccccc1)C(=O)N[C@H]1CSSC[C@@H](C(=O)N[C@H](C(=O)N[C@H](C(=O)N[C@@H](CC(=O)O)C(N)=O)[C@@H](C)O)C(C)(C)C)NC(=O)[C@H](CC(N)=O)NC(=O)[C@H](C)NC(=O)[C@H](CCCNC(=N)N)NC(=O)[C@H](CCC(=O)O)NC1=O)[C@@H](C)O [PSM-0291, Ac-Thr-Aib-Phe-[Cys-Glu-Arg-Ala-Asn-Cys]-Tle-Thr-Asp-NH2] (Ac-T[Aib]FCERANC[Tle]TD-NH2; disulfide 4-9)
IC50 [1, 6]: 1260 to 3160 nM | Kd [2, 7]: > 501 nM

CNC(=N)NCCC[C@@H]1NC(=O)[C@H](CCCCN)NC(=O)[C@@H](NC(=O)[C@H](Cc2ccc(Cl)cc2)NC(=O)C(C)(C)NC(C)=O)CSSC[C@@H](C(=O)N[C@H](C(=O)NCCNC(=O)CN2CCN(CC(=O)O)CCN(CC(=O)O)CCN(CC(=O)O)CC2)C(C)(C)C)NC(=O)[C@H](CC(N)=O)NC(=O)C(C)(C)NC1=O [PSM-0320, Ac-Aib-Pcf-[Cys-Lys-Arg(Me)-Aib-Asn-Cys]-Tle-en-DOTA] (Ac-[Aib][Phe(4-Cl)]CK[Arg(Me)][Aib]NC[Tle]-{Ethylenediamine-DOTA}; disulfide 3-8)
IC50 [1, 6]: < 200 nM | Kd [2, 7]: < 12.6 nM

CCC1(CC)NC(=O)[C@H](CCCNC(=N)N)NC(=O)[C@H](CCCCN)NC(=O)[C@@H](NC(=O)[C@H](Cc2ccccc2)NC(=O)C(C)(C)NC(=O)[C@@H](NC(C)=O)[C@@H](C)O)CSSC[C@@H](C(=O)N[C@H](C(=O)N[C@H](C(N)=O)[C@@H](C)O)C(C)(C)C)NC(=O)[C@H](CC(N)=O)NC1=O [PSM-0375, Ac-Thr-Aib-Phe-[Cys-Lys-Arg-Deg-Asn-Cys]-Tle-Thr-NH2] (Ac-T[Aib]FCKR[Deg]NC[Tle]T-NH2; disulfide 4-9)
IC50 [1, 4]: < 200 nM | Kd [2, 5]: < 12.6 nM

CNCCCC[C@@H]1NC(=O)[C@@H](NC(=O)[C@H](Cc2cccc(F)c2)NC(=O)C(C)(C)NC(=O)[C@@H](NC(=O)CC2CCN(C(=O)CN3CCN(CC(=O)O)CCN(CC(=O)O)CCN(CC(=O)O)CC3)CC2)[C@@H](C)O)CSSC[C@@H](C(=O)N[C@H](C(N)=O)C(C)(C)C)NC(=O)[C@H](CC(N)=O)NC(=O)C(C)(C)NC(=O)[C@H](CCCNC(=N)NC)NC1=O [PSM-0553, DOTA-Cmp-Thr-Aib-Mff-[Cys-Lys(Me)-Arg(Me)-Aib-Asn-Cys]-Tle-NH2] ({DOTA}-[X1]T[Aib][Phe(3-F)]C[Lys(Me)][Arg(Me)][Aib]NC[Tle]-NH2; disulfide 5-10)
IC50 [1, 4]: < 200 nM | Kd [2, 5]: 12.6 to 126 nM

CC(=O)NC(C)(C)C(=O)N[C@@H](Cc1ccc(Cl)cc1)C(=O)N[C@H]1CSSC[C@@H](C(=O)N[C@H](C(=O)N[C@H](C(N)=O)[C@@H](C)O)C(C)(C)C)NC(=O)[C@H](CC(N)=O)NC(=O)C(C)(C)NC(=O)[C@H](CCCNC(=N)N)NC(=O)[C@H](CCCCN)NC1=O [PSM-0559, Ac-Aib-Pcf-[Cys-Lys-Arg-Aib-Asn-Cys]-Tle-Thr-NH2] (Ac-[Aib][Phe(4-Cl)]CKR[Aib]NC[Tle]T-NH2; disulfide 3-8)
IC50 [1, 3]: < 200 nM | Kd ([2]; PSMA SPR assay, category): < 12.6 nM
